As a reminder, the IC50 is the concentration at which inhibition is half-maximal.

We go through 1 molecule from BindingDB's records for doi:10.1021/acs.jmedchem.8b00170 (The University of Queensland, 2018).

The structures appear in SMILES notation.

The experiment has as its target Melanocortin receptor 5 (Homo sapiens, UniProt P33032). As to the kind of experiment: Displacement of [125I]-NDP-alpha-MSH from human MC5R LBD expressed in HEK293 cell membranes incubated for 16 to 23 hrs in dark by scintillation proximity assay. Background: In a radioligand displacement assay an active substance lowers the binding of a labelled ligand.

Chain of Melanocortin receptor 5 (P33032 whole entry, the tested form may be a part): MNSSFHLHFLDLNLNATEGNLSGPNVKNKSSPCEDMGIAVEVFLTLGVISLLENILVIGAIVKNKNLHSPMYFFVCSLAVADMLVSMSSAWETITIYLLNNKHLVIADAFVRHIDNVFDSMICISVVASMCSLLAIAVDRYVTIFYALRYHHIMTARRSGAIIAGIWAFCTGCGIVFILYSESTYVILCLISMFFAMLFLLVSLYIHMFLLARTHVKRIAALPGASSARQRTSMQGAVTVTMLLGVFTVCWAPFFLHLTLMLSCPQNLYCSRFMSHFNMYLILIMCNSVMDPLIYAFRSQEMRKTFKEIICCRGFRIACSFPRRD

`CC[C@H](C)[C@@H]1NC(=O)[C@@H]2CCCN2C(=O)[C@@H]2CCCN2C(=O)[C@H]([C@@H](C)CC)NC(=O)[C@H](CO)NC(=O)[C@H](C)NC(=O)[C@H]([C@@H](C)O)NC(=O)[C@@H]2CSSC[C@H](NC1=O)C(=O)N[C@@H](Cc1c[nH]cn1)C(=O)N[C@H](Cc1ccccc1)C(=O)N(C)[C@@H](CCCNC(=N)N)C(=O)N(C)[C@@H](Cc1c[nH]c3ccccc13)C(=O)N[C@@H](CCCNC(=N)N)C(=O)N2` showed an IC50 of 813 nM.
